Like-named read-outs stand apart in the source and are kept apart here. Bounds are passed on as bounds.

This assay has as its system hepatocellular carcinoma cell line Hub-7. Put plainly: Cell proliferation assay (CELL-TITER GLO cell viability). It is filed as cell-based. The conditions noted are these: Hub-7 cells, 24 h incubation, read-out: Inhibition of Cell Proliferation EC50. The protocol:
The activity of a test compound was determined in a cell proliferation assay using the hepatocellular carcinoma cell line […]. Cells (4,000 cells per well) were seeded in a 96-well tissue culture plate. After incubated overnight, a test compound was added at predetermined concentrations, starting with 10 μM and followed by 3-fold serial dilution. After the cells were incubated for 24 h, cell viability was determined using a CELL-TITER GLO® assay. The CELL-TITER GLO® reagent (50 μL) was added to each well and the luminescence was measured by a multimode microplate reader after a brief period of shaking. EC50 values were determined for the test compound. The results are summarized in Table 1, wherein A represents a value no greater than 100 nM, B represents a value greater than 100 nM but no greater than 500 nM, C represents a value greater than 500 nM but no greater than 2 μM, D represents a value greater than 2 μM but no greater than 10 μM; and E represents a value greater than 10 μM.

Take `C#CC(=O)N(c1cccc2nsnc12)C1(C(=O)NCc2ccccc2)CCOCC1` [A161, 4-(N-(Benzo[c][1,2,5]thiadiazol-4-yl)propiolamido)-N-benzyltetrahydro-2H-pyran-4-carboxamide]: the EC50 (24 h) was at most 100 nM.

In the case of `O=C(CCl)N(c1ccc2c(c1)OCO2)C1(C(=O)NCc2ccccc2)CCOCC1` [C19, 4-(N-(Benzo[d][1,3]dioxol-5-yl)-2-chloroacetamido)-N-benzyltetrahydro-2H-pyran-4-carboxamide], the EC50 (24 h) lay within 2000 to 10000 nM.

Regarding `C#CC(=O)N(Cc1cccc(O)c1)C1(C(=O)NCc2ccccc2)CCCC(C(=O)OC)C1` (centres unmarked) [A167, Methyl 3-(benzylcarbamoyl)-3-(N-(3-hydroxybenzyl)propiolamido)cyclohexane-1-carboxylate], the EC50 (24 h) was in the range of 100 to 500 nM.

Turning to `Cn1ncc2cc(N(C(=O)CCl)C3(C(=O)NCCc4ccccc4)CCOCC3)ccc21` [C22, 4-(2-Chloro-N-(1-methyl-1H-indazol-5-yl)acetamido)-N-phenethyltetrahydro-2H-pyran-4-carboxamide], the EC50 (24 h) lay in the range of 500 to 2000 nM.

Regarding `C#CC(=O)N(Cc1ccccc1)C(C(=O)NCc1ccccc1)c1cccc(N)c1` (centres unmarked) [A36, N-(1-(3-Aminophenyl)-2-(benzylamino)-2-oxoethyl)-N-benzylpropiolamide], for the setting “24 h”, the EC50 was in the range of 500 to 2000 nM.

As to `C#CC(=O)N(c1ccc2c(c1)C(=O)OC2)C1(C(=O)NCc2ccccc2)CCOCC1` [A149, N-Benzyl-4-(N-(3-oxo-1,3-dihydroisobenzofuran-5-yl)propiolamido)tetrahydro-2H-pyran-4-carboxamide], under “24 h”, the EC50 is at most 100 nM.

As for `C#CC(=O)N(c1cccc(Cl)c1)C1(C(=O)NCc2ccccc2)CCCC(=O)C1` (centres unmarked) [A172, N-Benzyl-1-(N-(3-chlorophenyl)propiolamido)-3-oxocyclohexanecarboxamide], where the note is “24 h”, the EC50 was at most 100 nM.

For the compound `C#CC(=O)N(c1cccc(C#N)c1)C(C(=O)NCc1ccccc1)c1ccccc1` (centres unmarked) [A100, N-(2-(Benzylamino)-2-oxo-1-phenylethyl)-N-(3-cyanophenyl)propiolamide], the EC50 (24 h) is at most 100 nM.

In the case of `C#CC(=O)N(c1ccc2c(cnn2C)c1)C1(C(=O)NCc2ccccc2)CCC(=O)CC1` [A164, N-Benzyl-1-(N-(1-methyl-1H-indazol-5-yl)propiolamido)-4-oxocyclohexane-1-carboxamide], the EC50 (24 h) is at most 100 nM.

On to `C#CC(=O)N(Cc1ccc(C(=O)OC)cc1)C(C)C(=O)NCc1ccccc1` (centres unmarked) [A84, Methyl 4-((N-(1-(benzylamino)-1-oxopropan-2-yl)propiolamido)methyl)-benzoate], for which the EC50 (24 h) lay in the range of 100 to 500 nM.

For the compound `C#CC(=O)N(c1ccc(C(=O)OC)cc1)C(C(=O)NC(C)(C)C)c1ccc(N)cc1` (centres unmarked) [A14, Methyl 4-(N-(1-(4-aminophenyl)-2-(tert-butylamino)-2-oxoethyl)-propiolamido)-benzoate], the EC50 (24 h) is at most 100 nM.

`COc1ccc(N(C(=O)CCl)C2(C(=O)NCCc3ccccc3)CCOCC2)cc1Cl` [C26, 4-(2-Chloro-N-(3-chloro-4-methoxyphenyl)acetamido)-N-phenethyltetrahydro-2H-pyran-4-carboxamide]: the EC50 (24 h) was at most 100 nM.

As to `C=C(F)C(=O)N(c1ccc(OC)c(Cl)c1)C(C(=O)NCc1ccccc1)c1cccc(N)c1` (centres unmarked) [B4, N-(1-(3-Aminophenyl)-2-(benzylamino)-2-oxoethyl)-N-(3-chloro-4-methoxy-phenyl)-2-fluoroacrylamide], the EC50 (24 h) was over 10000 nM.

As to `C#CC(=O)N(c1cccc(Cl)c1F)C(C(=O)NCc1ccccc1)c1ccc(N)cc1` (centres unmarked) [A123], the EC50 (24 h) was at most 100 nM.

As for `Cn1ncc2cc(N(C(=O)CCCl)C3(C(=O)NCc4ccccc4)CCOCC3)ccc21` [D5, N-Benzyl-4-(3-chloro-N-(1-methyl-1H-indazol-5-yl)propanamido)tetrahydro-2H-pyran-4-carboxamide], where the note is “24 h”, the EC50 was over 10000 nM.

Take `C#CC(=O)N(c1cccc(Cl)c1)C(C(=O)NCc1ccccc1)c1cccs1` (centres unmarked) [A75, N-(2-(Benzylamino)-2-oxo-1-(thiophen-2-yl)ethyl)-N-(3-chlorophenyl)-propiolamide]: where the note is “24 h”, the EC50 is at most 100 nM.

Turning to `Cn1ncc2cc(N(C(=O)C#CCO)C3(C(=O)NCc4ccccc4)CCOCC3)ccc21` [A131, N-Benzyl-4-(4-hydroxy-N-(1-methyl-1H-indazol-5-yl)but-2-ynamido)tetrahydro-2H-pyran-4-carboxamide], the EC50 (24 h) is over 10000 nM.

With `C#CC(=O)N(c1cccc(Cl)c1)C1(C(=O)NCc2ccccc2)CCCC(C(=O)OC)C1` (centres unmarked) [A173, Methyl 3-(benzylcarbamoyl)-3-(N-(3-chlorophenyl)propiolamido)cyclohexane-carboxylate], the EC50 (24 h) was at most 100 nM.

Take `COc1ccc(N(C(=O)CCl)C(C(=O)NCCc2ccccc2)c2ccc(NC(=O)CO)cc2)cc1Cl` (centres unmarked) [C4, 2-chloro-N-(3-chloro-4-methoxyphenyl)-N-(1-(4-(2-hydroxyacetamido)phenyl)-2-oxo-2-(phenethylamino)ethyl)acetamide]: the EC50 (24 h) was 500 to 2000 nM.

As for `C#CC(=O)N(c1cccc(Cl)c1)C(C(=O)NCc1ccc(C#N)cc1)c1ccccc1` (centres unmarked) [A114, N-(3-chlorophenyl)-N-(2-((4-cyanobenzyl)amino)-2-oxo-1-phenylethyl)propiolamide], the EC50 (24 h) is at most 100 nM.

In the case of `C#CC(=O)N(c1cccc(S(N)(=O)=O)c1)C(C(=O)NC(C)(C)C)c1ccc(N)cc1` (centres unmarked) [A2, N-(1-(4-aminophenyl)-2-(tert-butylamino)-2-oxoethyl)-N-(3-sulfamoylphenyl)propiolamide], where the note is “24 h”, the EC50 is over 10000 nM.

With `C#CC(=O)N(c1ccc(OC)cc1OC)C1(C(=O)NCc2ccccc2)CCOCC1` [A157, N-Benzyl-4-(N-(2,4-dimethoxyphenyl)propiolamido)tetrahydro-2H-pyran-4-carboxamide], the EC50 (24 h) is at most 100 nM.

Consider `C#CC(=O)N(c1ccc2ncsc2c1)C(C(=O)NCc1ccccc1)c1ccccc1` (centres unmarked) [A98, N-(Benzo[d]thiazol-6-yl)-N-(2-(benzylamino)-2-oxo-1-phenylethyl)-propiolamide], for which the EC50 (24 h) fell in the range of 100 to 500 nM.

Turning to `C#CC(=O)N(c1cccc(NC(C)=O)c1)C(C(=O)NCc1ccccc1)c1ccc(N)cc1` (centres unmarked) [A63, N-(3-Acetamidophenyl)-N-(1-(4-aminophenyl)-2-(benzylamino)-2-oxoethyl)-propiolamide], the EC50 (24 h) was in the range of 2000 to 10000 nM.

`Nc1cccc(N(C(=O)CCl)C(C(=O)NCCc2ccccc2)c2cccs2)c1` (centres unmarked) [C13]: the EC50 lay within 2000 to 10000 nM.

As to `C#CC(=O)N(c1cccc2c1OCO2)C1(C(=O)NCc2ccccc2)CCOCC1` [A141, 4-(N-(Benzo[d][1,3]dioxol-4-yl)propiolamido)-N-benzyltetrahydro-2H-pyran-4-carboxamide], the EC50 (24 h) is at most 100 nM.

For `C#CC(=O)N(c1cccc(Cl)c1)C(C(=O)NC(C)(C)C)c1ccc(N)cc1` (centres unmarked) [A5, N-(1-(4-Aminophenyl)-2-(tert-butylamino)-2-oxoethyl)-N-(3-chlorophenyl)-propiolamide], where the note is “24 h”, the EC50 lay within 100 to 500 nM.

With `C#CC(=O)N(c1ccc(OC)c(Cl)c1)C(C(=O)NC(C)(C)C)c1ccc(N)cc1` (centres unmarked) [A3, N-(1-(4-Aminophenyl)-2-(tert-butylamino)-2-oxoethyl)-N-(3-chloro-4-methoxy-phenyl)propiolamide], where the note is “24 h”, the EC50 was at most 100 nM.

Regarding `C#CC(=O)N(c1cccc(Cl)c1)C1(C(=O)NCc2ccccc2)CCCC(O)C1` (centres unmarked) [A171, N-Benzyl-1-(N-(3-chlorophenyl)propiolamido)-3-hydroxycyclohexane-carboxamide], where the note is “24 h”, the EC50 was 2000 to 10000 nM.

Consider `C#CC(=O)N(c1cccc(Cl)c1)C1(C(=O)NCc2ccccc2)CCC(=O)CC1` [A175, N-Benzyl-1-(N-(3-chlorophenyl)propiolamido)-4-oxocyclohexane-1-carboxamide], for which the EC50 (24 h) was at most 100 nM.

In the case of `Cn1ncc2cc(N(C(=O)C3CO3)C3(C(=O)NCc4ccccc4)CCOCC3)ccc21` (centres unmarked) [C30, N-Benzyl-4-(N-(1-methyl-1H-indazol-5-yl)oxirane-2-carboxamido)tetrahydro-2H-pyran-4-carboxamide], the EC50 (24 h) is over 10000 nM.

On to `C#CC(=O)N(c1ccc(C(N)=O)cc1)C(C(=O)NC(C)(C)C)c1ccc(N)cc1` (centres unmarked) [A10, 4-(N-(1-(4-Aminophenyl)-2-(tert-butylamino)-2-oxoethyl)propiolamido)-benzamide], for which the EC50 (24 h) was over 10000 nM.

Take `C#CC(=O)N(c1ccc(Cl)cc1)C(C(=O)NC(C)(C)C)c1cccc(N)c1` (centres unmarked) [A119]: the EC50 (24 h) was at most 100 nM.

Turning to `C#CC(=O)N(c1ccc(NS(C)(=O)=O)cc1)C(C(=O)NC(C)(C)C)c1cccc(N)c1` (centres unmarked) [A24, N-(1-(3-Aminophenyl)-2-(tert-butylamino)-2-oxoethyl)-N-(4-(methyl-sulfonamido)phenyl)propiolamide], the EC50 (24 h) was over 10000 nM.

For the compound `Cn1ncc2cc(N(C(=O)CO)C3(C(=O)NCc4ccccc4)CCOCC3)ccc21` [D3, N-Benzyl-4-(2-hydroxy-N-(1-methyl-1H-indazol-5-yl)acetamido)tetrahydro-2H-pyran-4-carboxamide], the EC50 (24 h) was over 10000 nM.

As for `C#CC(=O)N(C1CCC1)C1(C(=O)NCc2ccccc2)CCCC(C(=O)OC)C1` (centres unmarked) [A168, Methyl 3-(benzylcarbamoyl)-3-(N-cyclobutylpropiolamido)cyclohexane-1-carboxylate], under “24 h”, the EC50 fell in the range of 500 to 2000 nM.

Turning to `C#CC(=O)N(c1cccc(-c2cc[nH]n2)c1)C(C(=O)NCc1ccccc1)c1ccccc1` (centres unmarked) [A134, N-(3-(1H-Pyrazol-3-yl)phenyl)-N-(2-(benzylamino)-2-oxo-1-phenylethyl)-propiolamide], the EC50 (24 h) is at most 100 nM.

`C#CC(=O)N(c1ccc(OC)c(Cl)c1)C(C(=O)NCc1ccccc1)c1cccc(N)c1` (centres unmarked) [A34, N-(1-(3-Aminophenyl)-2-(benzylamino)-2-oxoethyl)-N-(3-chloro-4-methoxy-phenyl)propiolamide]: the EC50 (24 h) is at most 100 nM.

(Values after patent US12516016B2, “GPX4 inhibitors, pharmaceutical compositions thereof, and their use for treating GPX4-mediated diseases” (EUBULUS BIOTHERAPEUTICS (HONG KONG) LIMITED, priority 2020, dated 2026).)
